# Columns and labels:
# CYP3A = assay: Pharmacokinetics of MDZ in hPXR mice pretreated with RIFax; conditions: MDZ 2.5 mg/kg oral; for AUC0-90 min / Cmax / Tmax: serum; for AUC0-90 min ratio RIFax/Cont / Cmax ratio RIFax/Cont / Tmax ratio RIFax/Cont: hPXR mice, RIFax pretreated vs control
# Experimental: Blood samples were collected from suborbital veins using heparinized tubes at pre-dose, 5, 10, 20, 30, 60, and 90 min after administration of MDZ. Serum was separated by centrifugation at 8,000 g for 10 min. For MDZ and 1′-OH-MDZ extraction, 50 μl of serum was mixed with 150 μl of phosphate-buffered saline, 200 μl of ethyl acetate, and 200 μl of methyl t-butyl ether. The mixture was centrifuged at 3,000 rpm for 5 min at 4° C. The organic layer was then transferred to a new tube, dried with N2, and reconstituted in 100 μl of 70% aqueous methanol and 30% H2O containing 0.1% formic acid. […] Pharmacokinetic parameters for MDZ and 1′-OH-MDZ were estimated from the plasma concentration-time data by a non-compartmental approach using WinNonlin (Pharsight, Mountain View, Calif.). The area under the serum concentration-time curve (AUC0-90 min) was calculated by the trapezoidal rule. The maximum concentration in serum (Cmax) and its corresponding time (Tmax) were obtained from the original data.
# PXR = molecular target: T1, PXR (Mus musculus, UniProt O54915); conditions: dextran sulfate sodium (DSS)-induced BD mouse model; cited from earlier work
# T1 construct: host or cells: mice (DSS colitis model)
# T1 sequence (O54915 1-431): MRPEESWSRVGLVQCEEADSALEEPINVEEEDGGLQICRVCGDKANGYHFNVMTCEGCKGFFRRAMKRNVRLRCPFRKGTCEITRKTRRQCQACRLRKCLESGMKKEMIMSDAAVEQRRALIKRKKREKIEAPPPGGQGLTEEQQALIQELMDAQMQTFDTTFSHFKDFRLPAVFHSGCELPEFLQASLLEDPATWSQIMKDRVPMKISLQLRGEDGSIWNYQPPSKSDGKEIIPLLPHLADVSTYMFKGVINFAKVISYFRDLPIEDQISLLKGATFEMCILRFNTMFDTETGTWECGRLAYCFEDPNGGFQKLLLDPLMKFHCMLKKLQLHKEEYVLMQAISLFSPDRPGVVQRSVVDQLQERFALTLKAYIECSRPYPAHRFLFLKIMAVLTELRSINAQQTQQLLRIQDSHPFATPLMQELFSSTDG
# MRP2 [1] = conditions: mouse PXR ligand; cited from earlier work
# MRP2 [2] = conditions: rat hepatocytes; cited from earlier work
# in vivo = type: in vivo; conditions: mouse, in vivo, po, 10 mg/kg
# Experimental: (§1) The maximum concentration in serum (Cmax) was obtained from the original data. […] Intestinal contents were weighted, and homogenized in methanol (100 mg/ml). The homogenate was centrifuged at 14,000 rpm for 10 min at 4° C.
# (§2) The mass spectrometer was operated in the turbo ion spray mode with positive ion detection. The turbo ion spray temperature was maintained at 300° C., and a voltage of 4.8 kV was applied to the sprayer needle. N2 was used as the turbo ion spray and nebulizing gas.
# [3] = Intestinal tract distribution of RIF and RIFax in mice (intestinal contents, LC-MS/MS); type: in vivo; conditions: mouse, in vivo, po, 10 mg/kg
# Experimental: as §1, §2
# [4] = Cont: hPXR mice without RIFax pretreatment
# [5] = hPXR mice pretreated with RIFax 10 mg/kg/day for 3 days
Structure (SMILES),AUC0-90 min (CYP3A; [4]) [µmol·min/L],Cmax (CYP3A; [4]) [µM],Tmax (CYP3A; [4]) [min],AUC0-90 min (CYP3A; [5]) [µmol·min/L],Cmax (CYP3A; [5]) [µM],Tmax (CYP3A; [5]) [min],AUC0-90 min ratio RIFax/Cont (CYP3A),Cmax ratio RIFax/Cont (CYP3A),Tmax ratio RIFax/Cont (CYP3A),DSS-induced colitis (PXR),MRP2 induction (MRP2 [1]),MRP2 activation (MRP2 [2]),Cmax (in vivo) [µM],concentration in the small intestine (content) [3]
"OCc1ncc2n1-c1ccc(Cl)cc1C(c1ccccc1F)=NC2 [1′-OH-MDZ, 1′-Hydroxymidazolam]",32.4 ± 3.0,0.562 ± 0.0049,25.0 ± 7.1,36.5 ± 4.2,0.823 ± 0.0552,7.5 ± 3.5,1.1,1.5,0.3,,,,,
"Cc1ncc2n1-c1ccc(Cl)cc1C(c1ccccc1F)=NC2 [MDZ, midazolam]",8.0 ± 0.4,0.477 ± 0.0403,10.0 ± 0.0,8.9 ± 0.7,0.383 ± 0.0191,12.5 ± 10.6,1.1,0.8,1.3,,,,,
CC(=O)[C@H]1[C@H](C#N)C[C@H]2[C@@H]3CC=C4C[C@@H](O)CC[C@]4(C)[C@H]3CC[C@@]21C [PCN],,,,,,,,,,significantly prevented,not significantly induced,activated,,
"CO[C@H]1/C=C/O[C@@]2(C)Oc3c(C)c(O)c4c(O)c(c(/C=N/N5CCN(C)CC5)c(O)c4c3C2=O)NC(=O)/C(C)=C\C=C\[C@H](C)[C@H](O)[C@@H](C)[C@@H](O)[C@@H](C)[C@H](OC(C)=O)[C@@H]1C [RIF, 3-(4-Methylpiperazinyliminomethyl)rifamycin SV]",,,,,,,,,,,,,2.75,below 20 μg/g

# From US20110055943A1, “NOVEL THERAPEUTIC TARGETS IN INFLAMMATORY BOWEL DISEASE” (SALIX PHARMACEUTICALS, LTD., priority 2007, published 2011)
